Measurements reported in patent publication US20210253642A1, “CALPAIN MODULATORS AND THERAPEUTIC USES THEREOF BACKGROUND” (Blade Therapeutics, Inc., priority 2018, published 2021).

Tests used:
Assay type in all cases: biochemical
Human Calpain 2/NS1 = biological target: T1, Human Calpain 2/NS1 (Homo sapiens, UniProt P17655); test: Calpain continuous fluorescence (FRET) inhibition assay; details: Column B; SensoLyte 520 FRET substrate, pH 7.5, 25C
T1 sequence (P17655 1-700): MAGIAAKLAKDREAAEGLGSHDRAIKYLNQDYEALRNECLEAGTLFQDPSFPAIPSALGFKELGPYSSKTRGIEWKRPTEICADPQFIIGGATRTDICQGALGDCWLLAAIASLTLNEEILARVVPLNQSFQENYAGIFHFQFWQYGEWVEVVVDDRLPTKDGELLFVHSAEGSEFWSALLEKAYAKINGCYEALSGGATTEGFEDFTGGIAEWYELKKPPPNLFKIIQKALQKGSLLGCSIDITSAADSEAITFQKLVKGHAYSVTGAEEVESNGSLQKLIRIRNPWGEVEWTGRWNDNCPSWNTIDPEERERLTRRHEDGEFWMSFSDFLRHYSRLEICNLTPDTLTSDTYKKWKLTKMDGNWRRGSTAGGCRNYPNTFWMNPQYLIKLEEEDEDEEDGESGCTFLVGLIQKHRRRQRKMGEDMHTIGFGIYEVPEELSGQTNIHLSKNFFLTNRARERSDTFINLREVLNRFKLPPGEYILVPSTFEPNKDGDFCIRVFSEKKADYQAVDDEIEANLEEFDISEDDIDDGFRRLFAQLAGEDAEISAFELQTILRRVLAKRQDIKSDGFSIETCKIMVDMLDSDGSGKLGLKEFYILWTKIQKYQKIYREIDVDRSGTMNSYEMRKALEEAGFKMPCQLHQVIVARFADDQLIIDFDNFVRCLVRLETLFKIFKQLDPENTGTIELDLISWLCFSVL
T1 sequence (P04632 1-268 partner): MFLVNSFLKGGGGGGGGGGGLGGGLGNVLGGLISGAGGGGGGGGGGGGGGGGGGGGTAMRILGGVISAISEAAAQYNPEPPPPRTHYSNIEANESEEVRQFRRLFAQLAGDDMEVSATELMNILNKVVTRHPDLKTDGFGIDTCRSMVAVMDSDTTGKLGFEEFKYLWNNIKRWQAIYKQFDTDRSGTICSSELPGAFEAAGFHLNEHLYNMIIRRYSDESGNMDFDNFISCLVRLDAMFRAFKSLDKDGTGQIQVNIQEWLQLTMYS
Procedure: (§1) Calpain 1, 2, and 9 activity and inhibition thereof was assessed by means of a continuous fluorescence assay. The SensoLyte 520 Calpain substrate (Anaspec Inc.) was optimized for detecting calpain activity. This substrate contains an internally quenched 5-FAM/QXLTM 520 FRET pair. Calpains 1, 2, and 9 cleave the FRET substrate into two separate fragments resulting in an increase of 5-FAM fluorescence that is proportional to calpain activity
(§2) Assays were typically setup in black 384-well plates using automated liquid handling as follows. Calpain assay base buffer typically contains 50 mM Tris, pH 7.5, 100 mM NaCl and 1 mM DTT. Inhibitors were serially diluted in DMSO and used to setup 2× mixtures with calpains in the aforementioned buffer. After incubation at ambient temperature (25C), the reaction was initiated by adding a 2× mix of the fluorescent peptide substrate and CaCl2) (required for in-situ calpain activation) in the same buffer. Reaction progress curve data were typically collected for 10 min using excitation/emission wavelengths of 490 nm/520 nm on SpectraMax i3x or the FLIPR-Tetra plate readers (Molecular Devices Inc.). Reaction rates were calculated from progress curve slopes typically over 1-5 min. Dose response curves (rate vs. log inhibitor concentration) were typically fit to a 4-parameter logistic function to extract IC50 values.

Human Calpain 9/NS1 = biological target: T2, Human Calpain 9/NS1 (Homo sapiens, UniProt O14815); test: as above; details: Column C; SensoLyte 520 FRET substrate, pH 7.5, 25C
T2 sequence (O14815 1-690): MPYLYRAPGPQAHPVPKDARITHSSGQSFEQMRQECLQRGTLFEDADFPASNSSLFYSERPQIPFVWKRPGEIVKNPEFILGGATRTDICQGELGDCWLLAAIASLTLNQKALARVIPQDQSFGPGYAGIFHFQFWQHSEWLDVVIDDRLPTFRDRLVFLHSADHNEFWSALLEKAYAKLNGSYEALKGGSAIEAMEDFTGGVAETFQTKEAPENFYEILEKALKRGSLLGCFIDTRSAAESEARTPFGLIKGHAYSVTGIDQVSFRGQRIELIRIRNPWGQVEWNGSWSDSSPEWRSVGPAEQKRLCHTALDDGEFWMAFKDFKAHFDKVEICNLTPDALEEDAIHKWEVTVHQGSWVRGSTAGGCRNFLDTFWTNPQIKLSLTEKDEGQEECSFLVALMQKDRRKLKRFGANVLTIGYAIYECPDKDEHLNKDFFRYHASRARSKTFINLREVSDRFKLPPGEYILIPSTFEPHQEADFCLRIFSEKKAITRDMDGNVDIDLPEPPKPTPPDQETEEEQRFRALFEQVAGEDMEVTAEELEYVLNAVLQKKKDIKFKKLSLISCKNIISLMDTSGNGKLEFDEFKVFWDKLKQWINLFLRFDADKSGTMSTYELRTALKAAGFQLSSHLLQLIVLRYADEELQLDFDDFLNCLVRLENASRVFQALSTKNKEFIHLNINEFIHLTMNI
T2 sequence (P04632 1-268 partner): T1 sequence (P04632 1-268 partner)
Procedure: as §1, §2

Human Calpain 1/NS1 = biological target: T3, Human Calpain 1/NS1 (Homo sapiens, UniProt P07384); test: as above; details: Column A; SensoLyte 520 FRET substrate, pH 7.5, 25C
T3 sequence (P07384 1-714): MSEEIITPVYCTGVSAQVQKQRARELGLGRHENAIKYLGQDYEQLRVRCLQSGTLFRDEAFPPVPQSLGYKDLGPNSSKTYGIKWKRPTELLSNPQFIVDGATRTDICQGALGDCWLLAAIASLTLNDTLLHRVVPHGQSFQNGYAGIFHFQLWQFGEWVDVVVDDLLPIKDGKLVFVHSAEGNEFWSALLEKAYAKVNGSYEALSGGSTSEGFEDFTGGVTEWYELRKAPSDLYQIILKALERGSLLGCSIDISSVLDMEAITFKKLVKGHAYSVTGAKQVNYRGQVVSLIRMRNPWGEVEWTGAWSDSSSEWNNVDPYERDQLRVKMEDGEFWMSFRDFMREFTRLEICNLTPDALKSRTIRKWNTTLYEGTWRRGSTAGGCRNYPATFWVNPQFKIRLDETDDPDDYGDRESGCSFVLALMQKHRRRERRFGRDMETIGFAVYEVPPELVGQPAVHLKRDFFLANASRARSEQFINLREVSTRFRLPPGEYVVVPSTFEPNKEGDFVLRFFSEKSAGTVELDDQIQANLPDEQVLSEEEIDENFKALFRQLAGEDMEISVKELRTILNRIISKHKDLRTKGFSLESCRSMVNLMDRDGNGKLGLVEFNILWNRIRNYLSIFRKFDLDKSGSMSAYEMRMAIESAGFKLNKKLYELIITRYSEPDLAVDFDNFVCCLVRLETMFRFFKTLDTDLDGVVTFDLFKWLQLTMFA
T3 sequence (P04632 1-268 partner): T1 sequence (P04632 1-268 partner)
Procedure: as §1, §2

Human Cathepsin B = biological target: T4, Human Cathepsin B (Homo sapiens, UniProt P07858); test: Cathepsin continuous fluorescence inhibition assay; details: Column D; enzyme 25 nM, substrate 1 uM, pH 5.0, 30 minutes pre-incubation with inhibitor
T4 construct: purchased
Procedure: (§3) Cathepsin activity and inhibition thereof was assessed by means of a continuous fluorescence assay. All assays were run in 384 well format and utilized peptide substrates that liberate fluorescence upon protease catalyzed cleavage. FLIPR plate readers (Molecular Devices Inc.) were used to monitor reactions and extract initial rates which were then fit (four parameter logistic function) to obtain IC50 values. All enzymes are human. All enzymes and reagents were obtained commercially and are summarized in Tables 1 and 2 below along with assay conditions.

Human Cathepsin S = biological target: T5, Human Cathepsin S (Homo sapiens, UniProt P25774); test: Cathepsin continuous fluorescence inhibition assay; details: Column F; enzyme 6 nM, substrate 1 uM, pH 4.5, 30 minutes pre-incubation with inhibitor
T5 construct: purchased
T5 sequence (P25774 115-331): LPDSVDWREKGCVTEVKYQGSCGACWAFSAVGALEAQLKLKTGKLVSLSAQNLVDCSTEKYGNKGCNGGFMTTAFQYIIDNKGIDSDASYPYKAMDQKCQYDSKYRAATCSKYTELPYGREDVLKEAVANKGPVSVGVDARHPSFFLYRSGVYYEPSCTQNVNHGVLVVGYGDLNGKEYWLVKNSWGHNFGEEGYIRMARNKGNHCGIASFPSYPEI
Procedure: as §3

Human Cathepsin K = biological target: T6, Human Cathepsin K (Homo sapiens, UniProt P43235); test: Cathepsin continuous fluorescence inhibition assay; details: Column E; enzyme 10 nM, substrate 1 uM, pH 5.5, 30 minutes pre-incubation with inhibitor
T6 construct: purchased
T6 sequence (P43235 115-329): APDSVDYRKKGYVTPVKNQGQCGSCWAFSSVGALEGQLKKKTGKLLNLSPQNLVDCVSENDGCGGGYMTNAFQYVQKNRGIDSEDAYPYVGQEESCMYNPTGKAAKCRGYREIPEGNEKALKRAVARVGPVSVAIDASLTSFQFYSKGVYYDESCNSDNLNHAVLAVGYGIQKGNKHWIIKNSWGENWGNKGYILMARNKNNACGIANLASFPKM
Procedure: as §3

Human Cathepsin L = biological target: T7, Human Cathepsin L (Homo sapiens, UniProt P07711); test: Cathepsin continuous fluorescence inhibition assay; details: Column G; enzyme 0.025 nM, substrate 1 uM, pH 6.0, 30 minutes pre-incubation with inhibitor
T7 construct: purchased
T7 sequence (P07711 114-333): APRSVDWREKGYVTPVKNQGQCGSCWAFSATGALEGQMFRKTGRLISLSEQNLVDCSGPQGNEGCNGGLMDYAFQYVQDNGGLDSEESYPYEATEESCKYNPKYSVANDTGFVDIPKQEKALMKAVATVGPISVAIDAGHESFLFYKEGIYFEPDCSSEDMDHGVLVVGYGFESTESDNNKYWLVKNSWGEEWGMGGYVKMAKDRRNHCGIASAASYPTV
Procedure: as §3

Row | SMILES | IC50 (Human Calpain 2/NS1) [µM] | IC50 (Human Calpain 9/NS1) [µM] | IC50 (Human Calpain 1/NS1) [µM] | IC50 (Human Cathepsin B) [µM] | IC50 (Human Cathepsin S) [µM] | IC50 (Human Cathepsin K) [µM] | IC50 (Human Cathepsin L) [µM]
1 | CC(C)[C@@H]1NC(=O)/C=C/[C@@H](NC(=O)[C@@H](NC(=O)CNC(=O)OC(C)(C)C)C(C)C)COC(=O)[C@H](Cc2ccc(O)cc2)NC1=O [Compound 7, tert-butyl (2-(((s)-1-(((3S,6S,11R,E)-3-(4-hydroxybenzyl)-6-isopropyl-2,5,8-trioxo-1-oxa-4,7-diazacyclododec-9-en-11-yl)amino)-3-methyl-1-oxobutan-2-yl)amino)-2-oxoethyl)carbamate] | 3 to 10 | > 10 | 3 to 10 | < 3 | < 3 | < 3 | < 3
2 | CC(C)C[C@H](NC(=O)OC(C)(C)C)C(=O)N[C@@H]1/C=C/C(=O)N[C@@H](C(C)C)C(=O)N[C@@H](Cc2ccc(O)cc2)C(=O)OC1 [Compound 12, tert-butyl ((S)-1-(((3S,6S,11R,E)-3-(4-hydroxybenzyl)-6-isopropyl-2,5,8-trioxo-1-oxa-4,7-diazacyclododec-9-en-11-yl)amino)-4-methyl-1-oxopentan-2-yl)carbamate] | < 3 | > 10 | < 3 | < 3 | < 3 | < 3 | < 3
3 | CCCCCC/C=C\CC(=O)N[C@@H](Cc1ccc(O)cc1)C(=O)N[C@H](C(=O)N[C@@H]1/C=C/C(=O)N[C@@H](C(C)C)C(=O)N[C@@H](Cc2ccc(OC)cc2)C(=O)OC1)C(C)C [Compound 11, (Z)—N—((S)-3-(4-hydroxyphenyl)-1-(((S)-1-(((3S,6S,11R,E)-6-isopropyl-3-(4-methoxybenzyl)-2,5,8-trioxo-1-oxa-4,7-diazacyclododec-9-en-11-yl)amino)-3-methyl-1-oxobutan-2-yl)amino)-1-oxopropan-2-yl)dec-3-enamide] | < 3 | > 10 | < 3 | < 3 | < 3 | < 3 | < 3
4 | CCCCCC/C=C\CC(=O)NCC(=O)N[C@H](C(=O)N[C@@H]1/C=C/C(=O)N[C@@H](C(C)C)C(=O)N[C@@H](Cc2ccc(O)cc2)C(=O)OC1)C(C)C [Compound 10, (Z)—N-(2-(((S)-1-(((3S,6S,11R,E)-3-(4-hydroxybenzyl)-6-isopropyl-2,5,8-trioxo-1-oxa-4,7-diazacyclododec-9-en-11-yl)amino)-3-methyl-1-oxobutan-2-yl)amino)-2-oxoethyl)dec-3-enamide] | < 3 | > 10 | < 3 | < 3 | < 3 | < 3 | < 3
5 | CC(C)[C@@H]1NC(=O)/C=C/[C@@H](N)COC(=O)[C@H](Cc2ccc(O[Si](C)(C)C(C)(C)C)cc2)NC1=O [Compound 4, (3S,6S,11R,E)-11-amino-3-(4-((tert-butyldimethylsilyl)oxy)benzyl)-6-isopropyl-1-oxa-4,7-diazacyclododec-9-ene-2,5,8-trione] | > 10 | > 10 | > 10 | > 10 | 3 to 10 | < 3 | 3 to 10

The remaining lines, values ahead:

Row | IC50 (Human Calpain 2/NS1) [µM] | IC50 (Human Calpain 9/NS1) [µM] | IC50 (Human Calpain 1/NS1) [µM] | IC50 (Human Cathepsin B) [µM] | IC50 (Human Cathepsin S) [µM] | IC50 (Human Cathepsin K) [µM] | IC50 (Human Cathepsin L) [µM] | SMILES
6 | < 3 | > 10 | < 3 | < 3 | < 3 | < 3 | < 3 | CC(C)[C@@H]1NC(=O)/C=C/[C@@H](NC(=O)[C@@H](NC(=O)[C@H](Cc2ccc(O)cc2)NC(=O)OC(C)(C)C)C(C)C)COC(=O)[C@H](C)NC1=O [Compound 17, Tert-butyl ((S)-3-(4-hydroxyphenyl)-1-(((S)-1-(((3S,6S,11R,E)-6-isopropyl-3-methyl-2,5,8-trioxo-1-oxa-4,7-diazacyclododec-9-en-11-yl)amino)-3-methyl-1-oxobutan-2-yl)amino)-1-oxopropan-2-yl)carbamate]
7 | > 10 | > 10 | > 10 | < 3 | < 3 | < 3 | < 3 | CC(C)[C@@H]1NC(=O)/C=C/[C@@H](NC(=O)[C@H](C)NC(=O)OC(C)(C)C)COC(=O)[C@H](Cc2ccc(O)cc2)NC1=O [Compound 13, tert-butyl ((s)-1-(((3S,6S,11R,E)-3-(4-hydroxybenzyl)-6-isopropyl-2,5,8-trioxo-1-oxa-4,7-diazacyclododec-9-en-11-yl)amino)-1-oxopropan-2-yl)carbamate]
